From patent US11279733B2, “Peptide antibiotics” (priority 2017, dated 2022)
≈ marks a conversion by molar mass, not a printed value. Positions of bridges follow the written chain, without caps; N, C: chain ends. Non-standard residues stand in square brackets, D forms with d. Residues, ends and D or L forms follow the SMILES beside them. *: point of attachment. Decanoyl(3R-OH) = CCCCCCC[C@@H](O)CC(=O)*; dPhe(3-Cl) = N[C@H](Cc1cccc(Cl)c1)C(=O)O; hPhe = N[C@@H](CCc1ccccc1)C(=O)O; dDab = NCC[C@@H](N)C(=O)O; dDap = NC[C@@H](N)C(=O)O; Dab = NCC[C@H](N)C(=O)O

Assays:
in vitro = details: human
How it was run: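 Viability is measured by resazurin reduction (5 μM, 2 h, 37 °C) after cells seeded at 4000 per well are treated with compound for 24 h.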

Neisseria gonorrhoeae = test: MIC determination, Neisseria gonorrhoeae; assay type: cell-based; details: strain FA19 ATCC BAA-1838
Protocol: Bacteria were either obtained from American Type Culture Collection (ATCC; Manassas, Va., USA) or independent academic clinical isolate collections, as listed in Table 18 below. Bacteria were cultured in Nutrient broth (NB; Bacto Laboratories, catalogue No. 234000) or Mueller Hinton broth (MHB; Bacto Laboratories, catalogue No. 211443) at 37° C. overnight with shaking (˜180 RPM). A sample of each culture was then diluted 50-fold in fresh MHB and incubated at 37° C. for 2-3 h with shaking (˜180 RPM). Compound stock solutions were prepared as 0.64 mg/mL or 2.56 mg/mL in water. The compounds, at twice the final desired concentration, were serially diluted 2-fold across the wells of 96-well plates (Polystyrene, Corning, catalogue No. 3370). Mid-log phase bacterial cultures (after 2-3 h incubation) were diluted to a final concentration of 1×10^6 colony forming units (CFU)/mL, and 50 μL was added to each well giving a final cell density of 5×10^5 and a compound concentration range of 32 μg/mL to 0.015 μg/mL (128-0.06 μg/mL against P. aeruginosa PA9704).

A. baumannii GN_093 PmxR = details: GN 093 PmxR
How it was run: (§1)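 Mid-log cultures grown in Mueller Hinton broth at 37° C were tested by 2-fold broth microdilution at 5×10^5 CFU/mL final. Compounds were dissolved in water and tested over a final range of 32 to 0.015 μg/mL.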

[1] = system: K. pneumoniae ATCC 700603, MDR; details: ATCC 700603
How it was run: as §1

P. aeruginosa ATCC 27853 = details: ATCC 27853
How it was run: as §1

A. baumannii ATCC 19606 = details: ATCC 19606
How it was run: as §1

[2] = system: P. aeruginosa GN_105, PmxR; details: GN 105, PmxR
How it was run: as §1

[3] = system: K. pneumoniae GN_106, PmxR; details: GN 106, PmxR
How it was run: as §1

[4] = system: K. pneumoniae ATCC BAA-2146, NDM-1 pos; details: ATCC BAA-2146
How it was run: as §1

[5] = system: S. aureus ATCC 25923, MSSA; details: ATCC 25923
How it was run: as §1

E. coli ATCC 25922 = details: ATCC 25922
How it was run: as §1

[6] = system: P. aeruginosa GN_043, PmxR; details: polymyxin-resistant
How it was run: as §1

K. pneumoniae ATCC 13883 = details: ATCC 13883
How it was run: as §1

[7] = system: K. pneumoniae GN_102 PmxR; details: GN 102 PmxR
How it was run: as §1

Structure (SMILES): CCCCCCC[C@@H](O)CC(=O)N[C@H](CCN)C(=O)N[C@H]1CCNC(=O)[C@H](CCc2ccccc2)NC(=O)[C@H](CCN)NC(=O)[C@H](CCN)NC(=O)[C@H](CC(C)C)NC(=O)[C@@H](Cc2ccccc2)NC(=O)[C@H](CCN)NC1=O [compound 8913, 3(R)OH-nC9CO-D-Dab-cyc[L-Dab-L-Dab-D-Phe-L-Leu-L-Dab-L-Dab-L-hPhe]] ({Decanoyl(3R-OH)}-[dDab][Dab][Dab][dF]L[Dab][Dab][hPhe]; lactam 2-C)
- CC50 at 24 h (in vitro): 32 µM
- MIC N. gonorrhoeae FA19 ATCC BAA-1838 (Neisseria gonorrhoeae): 1.56 µg/mL (≈ 1.43 µM)
- MIC A. baumannii GN_093 PmxR (A. baumannii GN_093 PmxR): 4 µg/mL (≈ 3.66 µM)
- MIC K. pneumoniae ATCC 700603, MDR [1]: 4 µg/mL (≈ 3.66 µM)
- MIC P. aeruginosa ATCC 27853 (P. aeruginosa ATCC 27853): 2 µg/mL (≈ 1.83 µM)
- MIC A. baumannii ATCC 19606 (A. baumannii ATCC 19606): 8 µg/mL (≈ 7.32 µM)
- MIC P. aeruginosa GN_105, PmxR [2]: 2 µg/mL (≈ 1.83 µM)
- MIC K. pneumoniae GN_106, PmxR [3]: 2 µg/mL (≈ 1.83 µM)
- MIC K. pneumoniae ATCC BAA-2146, NDM-1 pos [4]: 4 µg/mL (≈ 3.66 µM)
- MIC S. aureus ATCC 25923, MSSA [5]: 4 µg/mL (≈ 3.66 µM)
- MIC E. coli ATCC 25922 (E. coli ATCC 25922): 2 µg/mL (≈ 1.83 µM)
- MIC P. aeruginosa GN_043, PmxR [6]: 4 µg/mL (≈ 3.66 µM)
- MIC K. pneumoniae ATCC 13883 (K. pneumoniae ATCC 13883): 4 µg/mL (≈ 3.66 µM)
- MIC K. pneumoniae GN_102 PmxR [7]: 2 µg/mL (≈ 1.83 µM)

Structure (SMILES): CCCCCCC[C@@H](O)CC(=O)N[C@H](CCN)C(=O)N[C@H]1CCNC(=O)[C@H](Cc2c[nH]c3ccccc23)NC(=O)[C@H](CCN)NC(=O)[C@H](CCN)NC(=O)[C@H](CC(C)C)NC(=O)[C@@H](Cc2cccc(Cl)c2)NC(=O)[C@H](CCN)NC1=O [compound 8914, 3(R)OH-nC9CO-D-Dab-cyc[L-Dab-L-Dab-D-Phe(3-Cl)-L-Leu-L-Dab-L-Dab-L-Trp]] ({Decanoyl(3R-OH)}-[dDab][Dab][Dab][dPhe(3-Cl)]L[Dab][Dab]W; lactam 2-C)
- CC50 at 24 h (in vitro): 25 µM
- MIC N. gonorrhoeae FA19 ATCC BAA-1838 (Neisseria gonorrhoeae): 0.78 µg/mL (≈ 0.677 µM)
- MIC A. baumannii GN_093 PmxR (A. baumannii GN_093 PmxR): 4 µg/mL (≈ 3.47 µM)
- MIC K. pneumoniae ATCC 700603, MDR [1]: 2 µg/mL (≈ 1.74 µM)
- MIC P. aeruginosa ATCC 27853 (P. aeruginosa ATCC 27853): 2 µg/mL (≈ 1.74 µM)
- MIC A. baumannii ATCC 19606 (A. baumannii ATCC 19606): 4 µg/mL (≈ 3.47 µM)
- MIC P. aeruginosa GN_105, PmxR [2]: 1 µg/mL (≈ 0.868 µM)
- MIC K. pneumoniae GN_106, PmxR [3]: 4 µg/mL (≈ 3.47 µM)
- MIC K. pneumoniae ATCC BAA-2146, NDM-1 pos [4]: 4 µg/mL (≈ 3.47 µM)
- MIC S. aureus ATCC 25923, MSSA [5]: 2 µg/mL (≈ 1.74 µM)
- MIC E. coli ATCC 25922 (E. coli ATCC 25922): 2 µg/mL (≈ 1.74 µM)
- MIC P. aeruginosa GN_043, PmxR [6]: 4 µg/mL (≈ 3.47 µM)
- MIC K. pneumoniae ATCC 13883 (K. pneumoniae ATCC 13883): 2 µg/mL (≈ 1.74 µM)
- MIC K. pneumoniae GN_102 PmxR [7]: 4 µg/mL (≈ 3.47 µM)

Structure (SMILES): CCCCCCC[C@@H](O)CC(=O)N[C@H](CN)C(=O)N[C@H]1CCNC(=O)[C@H](CC(C)C)NC(=O)[C@H](CCN)NC(=O)[C@H](CO)NC(=O)[C@H](CC(C)C)NC(=O)[C@@H](Cc2ccccc2)NC(=O)[C@H](CCN)NC1=O [compound 9193, 3(R)-OH-nC9CO-D-Dab-cyc[L-Dab-L-Dab-L-Leu-D-Phe-L-Dab-L-Dab-L-Leu]] ({Decanoyl(3R-OH)}-[dDap][Dab][Dab][dF]LS[Dab]L; lactam 2-C)
- CC50 at 24 h (in vitro): > 300 µM
- MIC N. gonorrhoeae FA19 ATCC BAA-1838 (Neisseria gonorrhoeae): 25 µg/mL (≈ 24.6 µM)
- MIC, A. baumannii Cl Ptyela 10073 4512:2, PmxR (A. baumannii GN_093 PmxR): >32 µg/mL
- MIC, K. pneumoniae ATCC 700603, MDR [1]: >32 µg/mL
- MIC, P. aeruginosa ATCC 27853 (P. aeruginosa ATCC 27853): 32 µg/mL (≈ 31.5 µM)
- MIC, A. baumannii ATCC 19606 (A. baumannii ATCC 19606): 32 µg/mL (≈ 31.5 µM)
- MIC, P. aeruginosa PA9704, PmxR [2]: >32 µg/mL
- MIC, K. pneumoniae Cl 138-16347-20362, PmxR [3]: >32 µg/mL
- MIC, K. pneumoniae ATCC BAA-2146, NDM-1 pos [4]: >32 µg/mL
- MIC, S. Aureus ATCC 25923, MSSA [5]: >32 µg/mL
- MIC, E. coli ATCC 25922 (E. coli ATCC 25922): >32 µg/mL
- MIC, P. aeruginosa FADDI-PA070, PmxR ([6]; Table 5): >32 µg/mL
- MIC, K. pneumoniae ATCC 13883 (K. pneumoniae ATCC 13883): >32 µg/mL
- MIC, K. pneumoniae Cl Koprana 10065 0661:1, PmxR [7]: >32 µg/mL
